Source: patent publication US20090227607A1, “DEAZAPURINES USEFUL AS INHIBITORS OF JANUS KINASES” (priority 2006, published 2009)

Columns and labels:
[1] = molecular target: T1, JAK3 (Homo sapiens, UniProt P52333); test: JAK3 Inhibition Assay; format: biochemical; conditions: 1 μM poly(Glu)4Tyr, 5 μM ATP, 1 nM JAK3, 25° C.; read-out: JAK3 enzyme inhibition data (Ki)
T1 sequence (P52333 1-1124): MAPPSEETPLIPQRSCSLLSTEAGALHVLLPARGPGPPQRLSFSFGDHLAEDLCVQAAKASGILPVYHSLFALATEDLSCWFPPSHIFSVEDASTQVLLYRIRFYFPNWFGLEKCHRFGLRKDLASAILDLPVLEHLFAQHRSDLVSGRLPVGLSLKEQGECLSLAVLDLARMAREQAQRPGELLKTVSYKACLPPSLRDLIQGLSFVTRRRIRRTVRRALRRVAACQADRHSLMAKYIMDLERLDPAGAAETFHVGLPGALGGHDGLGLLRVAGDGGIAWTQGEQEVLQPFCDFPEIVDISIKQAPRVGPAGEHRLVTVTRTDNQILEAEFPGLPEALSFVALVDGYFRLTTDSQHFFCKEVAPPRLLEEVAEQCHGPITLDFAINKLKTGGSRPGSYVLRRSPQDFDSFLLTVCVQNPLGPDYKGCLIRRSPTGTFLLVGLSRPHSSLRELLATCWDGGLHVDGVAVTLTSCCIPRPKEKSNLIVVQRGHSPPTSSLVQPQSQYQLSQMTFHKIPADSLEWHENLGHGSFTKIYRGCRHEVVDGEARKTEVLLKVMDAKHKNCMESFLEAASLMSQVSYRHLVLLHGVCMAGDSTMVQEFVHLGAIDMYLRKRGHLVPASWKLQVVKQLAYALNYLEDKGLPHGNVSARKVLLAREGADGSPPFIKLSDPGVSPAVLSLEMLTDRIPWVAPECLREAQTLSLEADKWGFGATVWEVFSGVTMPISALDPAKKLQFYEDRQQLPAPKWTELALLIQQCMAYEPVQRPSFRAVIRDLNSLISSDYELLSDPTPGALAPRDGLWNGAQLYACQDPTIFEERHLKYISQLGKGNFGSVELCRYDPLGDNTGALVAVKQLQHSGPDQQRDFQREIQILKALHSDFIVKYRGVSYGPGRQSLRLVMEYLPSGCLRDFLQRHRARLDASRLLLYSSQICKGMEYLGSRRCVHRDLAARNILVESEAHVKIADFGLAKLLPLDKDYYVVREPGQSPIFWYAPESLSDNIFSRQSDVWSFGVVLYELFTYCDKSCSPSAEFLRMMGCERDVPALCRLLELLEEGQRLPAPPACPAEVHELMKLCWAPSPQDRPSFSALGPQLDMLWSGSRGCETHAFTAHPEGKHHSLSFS
Experimental: (§1) Compounds were screened for their ability to inhibit JAK3 using the assay shown below. Reactions were carried out in a kinase buffer containing 100 mM HEPES (pH 7.4), 1 mM DTT, 10 mM MgCl2, 25 mM NaCl, and 0.01% BSA. Substrate concentrations in the assay were 5 μM ATP (200 uCi/μmole ATP) and 1 μM poly(Glu)4Tyr. Reactions were carried out at 25° C. and 1 nM JAK3.
(§2) To each well of a 96 well polycarbonate plate was added 1.5 μl of a candidate JAK3 inhibitor along with 50 μl of kinase buffer containing 2 μM poly(Glu)4Tyr and […]. This was then mixed and […] of kinase buffer containing 2 nM JAK3 enzyme was added to start the reaction. After 20 minutes at room temperature (25° C.), the reaction was stopped with 50 μl of 20% trichloroacetic acid (TCA) that also contained 0.4 mM ATP. The entire contents of each well were then transferred to a 96 well glass fiber filter plate using a TomTek Cell Harvester. After washing, 60 μl of scintillation fluid was added and ^33P incorporation detected on a Perkin Elmer TopCount.
(§3) Tables 5 and 6 depict enzyme inhibition data (Ki) for certain exemplary compounds. Compound numbers in Tables 5 and 6 correspond to those compounds depicted in Tables 1 and 2, respectively.

[2] = molecular target: JAK-2 enzyme (Homo sapiens, UniProt O60674); test: JAK2 Inhibition Assay; format: biochemical; conditions: 15 μM poly(Glu)4Tyr, 12 μM ATP, 25° C.
Experimental: as §1, §2
The assays were as described above in Example 36 except that JAK-2 enzyme was used, the final poly(Glu)4Tyr concentration was 15 μM, and final ATP concentration was 12 μM.
as §3

Chain of JAK-2 enzyme (O60674 whole entry, species assumed): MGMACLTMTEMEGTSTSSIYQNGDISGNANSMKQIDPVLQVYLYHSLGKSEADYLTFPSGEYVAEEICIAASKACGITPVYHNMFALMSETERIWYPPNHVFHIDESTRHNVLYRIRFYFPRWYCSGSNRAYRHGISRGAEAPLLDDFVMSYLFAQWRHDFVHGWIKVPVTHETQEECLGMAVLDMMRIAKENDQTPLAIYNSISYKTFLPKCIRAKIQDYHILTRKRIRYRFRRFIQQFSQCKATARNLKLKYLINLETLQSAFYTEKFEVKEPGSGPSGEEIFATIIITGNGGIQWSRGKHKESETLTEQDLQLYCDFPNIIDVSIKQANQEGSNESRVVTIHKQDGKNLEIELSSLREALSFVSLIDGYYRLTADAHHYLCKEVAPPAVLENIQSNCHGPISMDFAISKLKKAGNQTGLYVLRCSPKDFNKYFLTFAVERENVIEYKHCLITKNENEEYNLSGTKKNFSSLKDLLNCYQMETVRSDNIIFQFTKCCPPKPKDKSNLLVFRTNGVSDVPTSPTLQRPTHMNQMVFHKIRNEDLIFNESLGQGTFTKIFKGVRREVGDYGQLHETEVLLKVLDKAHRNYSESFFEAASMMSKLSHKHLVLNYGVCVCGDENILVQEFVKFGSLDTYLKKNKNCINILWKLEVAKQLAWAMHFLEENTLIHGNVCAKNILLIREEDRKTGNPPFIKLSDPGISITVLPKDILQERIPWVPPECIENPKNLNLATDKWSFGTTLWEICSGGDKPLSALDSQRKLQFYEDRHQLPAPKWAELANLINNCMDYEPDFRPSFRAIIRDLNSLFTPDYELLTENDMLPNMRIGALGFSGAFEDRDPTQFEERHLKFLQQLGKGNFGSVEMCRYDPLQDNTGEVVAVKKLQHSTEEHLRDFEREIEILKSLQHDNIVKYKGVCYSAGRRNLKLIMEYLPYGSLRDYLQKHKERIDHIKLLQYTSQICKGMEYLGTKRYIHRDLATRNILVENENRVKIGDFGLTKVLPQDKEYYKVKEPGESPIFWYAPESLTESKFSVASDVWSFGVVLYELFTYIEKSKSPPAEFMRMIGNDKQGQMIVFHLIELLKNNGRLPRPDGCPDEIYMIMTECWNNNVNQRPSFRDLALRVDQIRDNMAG

Row | SMILES | Ki [1] | Ki [2]
1 | N#CCN(Cc1cccc(Cl)c1)C(=O)c1cc(-c2ncnc3[nH]ccc23)c[nH]1 [Compound 113] | < 100 nM | < 100 nM
2 | C=CCN(C(=O)c1cc(-c2ncnc3[nH]ccc23)c[nH]1)C(C)c1ccccc1 (centres unmarked) [Compound 114] | < 100 nM | < 100 nM
3 | N#CCCN(CC1CC1)C(=O)c1cc(-c2ncnc3[nH]ccc23)c[nH]1 [Compound 115] | < 100 nM | < 100 nM
4 | C=CCN(C(=O)c1cc(-c2ncnc3[nH]ccc23)c[nH]1)C(C)c1ccccc1 (centres unmarked) [Compound 116] | < 100 nM | < 100 nM
5 | COC1CCC(C(=O)Nc2nc(-c3ncnc4[nH]ccc34)cs2)CC1 (centres unmarked) [Compound 117] | 100 to 500 nM | < 100 nM
6 | CCN(Cc1ccccc1)C(=O)c1ccc(-c2ncnc3[nH]ccc23)o1 [Compound 118] | < 100 nM | < 100 nM
7 | CN(CCC#N)C(=O)c1ccc(-c2ncnc3[nH]ccc23)o1 [Compound 119] | < 100 nM | < 100 nM
8 | O=C(c1ccc(-c2ncnc3[nH]ccc23)o1)N(CC1CC1)CC(F)(F)F [Compound 120] | < 100 nM | < 100 nM
9 | CCCN(CC(F)(F)F)C(=O)c1ccc(-c2ncnc3[nH]ccc23)o1 [Compound 121] | < 100 nM | < 100 nM
10 | O=C(c1ccc(-c2ncnc3[nH]ccc23)o1)N(CCC(F)(F)F)CC1CC1 [Compound 122] | < 100 nM | < 100 nM
11 | O=C(c1ccc(-c2ncnc3[nH]ccc23)o1)N(CCC(F)(F)F)Cc1ccccc1 [Compound 123] | < 100 nM | < 100 nM
12 | N#CCN(Cc1ccccc1)C(=O)c1ccc(-c2ncnc3[nH]ccc23)o1 [Compound 124] | 100 to 500 nM | < 100 nM
13 | N#CCCN(CC1CC1)C(=O)c1ccc(-c2ncnc3[nH]ccc23)o1 [Compound 125] | < 100 nM | < 100 nM
14 | C[C@@H]1CC[C@@H](C)N1C(=O)c1ccc(-c2ncnc3[nH]ccc23)o1 [Compound 126] | < 100 nM | < 100 nM
15 | CN(CC(F)(F)F)C(=O)c1ccc(-c2ncnc3[nH]ccc23)o1 [Compound 127] | < 100 nM | < 100 nM
16 | C=CCN(C(=O)CC(C)C)c1nc(-c2ncnc3[nH]ccc23)cs1 [Compound 128] | < 100 nM | < 100 nM
17 | CC(C)CC(=O)N(CCCC(F)(F)F)c1nc(-c2ncnc3[nH]ccc23)cs1 [Compound 129] | 100 to 500 nM | < 100 nM
18 | Nc1[nH]ncc1-c1ncnc2[nH]ccc12 [Compound 130] | 100 to 500 nM | 100 to 500 nM
19 | FC(F)(F)CN(Cc1coc(-c2ncnc3[nH]ccc23)c1)CC1CC1 [Compound 131] | < 100 nM | < 100 nM
20 | C[C@@H]1CC[C@H](C)N1C(=O)c1cc(-c2ncnc3[nH]ccc23)c[nH]1 [Compound 132] | 100 to 500 nM | < 100 nM
21 | C[C@@H](O)CNC(=O)c1cc(-c2ncnc3[nH]ccc23)c[nH]1 [Compound 133] | 100 to 500 nM | < 100 nM
22 | N#CCCN(CCC#N)C(=O)c1cc(-c2ncnc3[nH]ccc23)c[nH]1 [Compound 134] | < 100 nM | < 100 nM
23 | N#CCCN(Cc1ccco1)C(=O)c1cc(-c2ncnc3[nH]ccc23)c[nH]1 [Compound 135] | < 100 nM | < 100 nM
24 | N#CCCN(CC1CCCO1)C(=O)c1cc(-c2ncnc3[nH]ccc23)c[nH]1 (centres unmarked) [Compound 136] | 100 to 500 nM | < 100 nM
25 | C#CCN(C(=O)c1cc(-c2ncnc3[nH]ccc23)c[nH]1)C1CCCCC1 [Compound 137] | 100 to 500 nM | < 100 nM
26 | CCC(CC)CNC(=O)c1cc(-c2ncnc3[nH]ccc23)c[nH]1 [Compound 138] | < 100 nM | < 100 nM

Row | SMILES | Ki [1] | Ki [2]
27 | C[C@H](O)CNC(=O)c1cc(-c2ncnc3[nH]ccc23)c[nH]1 [Compound 140] | 100 to 500 nM | < 100 nM
28 | CC(C)(CC(=O)O)CC(=O)Nc1nc(-c2ncnc3[nH]ccc23)cs1 [Compound 145] | 100 to 500 nM | 100 to 500 nM
29 | O=C(O)CCC(=O)Nc1nc(-c2ncnc3[nH]ccc23)cs1 [Compound 146] | 100 to 500 nM | 100 to 500 nM
30 | COC(=O)C1CC=CCC1C(=O)Nc1nc(-c2ncnc3[nH]ccc23)cs1 (centres unmarked) [Compound 149] | 100 to 500 nM | < 100 nM
31 | COC(=O)C1C2C=CC(C2)C1C(=O)Nc1nc(-c2ncnc3[nH]ccc23)cs1 (centres unmarked) [Compound 155] | 100 to 500 nM | < 100 nM
32 | Cc1c[nH]c2ncnc(-c3cnn(C)c3)c12 [Compound 160] | 100 to 500 nM | 100 to 500 nM
33 | CCCn1cc(-c2ncnc3[nH]cc(C)c23)cn1 [Compound 161] | 100 to 500 nM | 100 to 500 nM
34 | Cc1c[nH]c2ncnc(-c3cnn(CC(C)C)c3)c12 [Compound 162] | 100 to 500 nM | < 100 nM
35 | Cc1c[nH]c2ncnc(-c3cnn(CCC(C)C)c3)c12 [Compound 163] | 100 to 500 nM | < 100 nM
36 | CC(C)CCn1cc(-c2ncnc3[nH]cc(Cl)c23)cn1 [Compound 164] | 100 to 500 nM | < 100 nM
37 | CCCn1cc(-c2ncnc3[nH]cc(Cl)c23)cn1 [Compound 165] | 100 to 500 nM | < 100 nM
38 | CC(C)Cn1cc(-c2ncnc3[nH]cc(Cl)c23)cn1 [Compound 166] | 100 to 500 nM | < 100 nM
39 | O=C1CCC(C(=O)Nc2nc(-c3ncnc4[nH]ccc34)cs2)C1 (centres unmarked) [Compound 167] | < 100 nM | < 100 nM
40 | CC(=O)NCCCC(=O)Nc1nc(-c2ncnc3[nH]ccc23)cs1 [Compound 168] | 100 to 500 nM | < 100 nM
41 | CC(=O)N1CCC(C(=O)Nc2nc(-c3ncnc4[nH]ccc34)cs2)CC1 [Compound 169] | < 100 nM | < 100 nM
42 | O=C(CCC(=O)C1CC1)Nc1nc(-c2ncnc3[nH]ccc23)cs1 [Compound 170] | 100 to 500 nM | < 100 nM
43 | COC(=O)N1CCC(C(=O)Nc2nc(-c3ncnc4[nH]ccc34)cs2)CC1 [Compound 171] | < 100 nM | < 100 nM
44 | CN1CC(C(=O)Nc2nc(-c3ncnc4[nH]ccc34)cs2)CC1=O (centres unmarked) [Compound 172] | 100 to 500 nM | < 100 nM
45 | O=C(Nc1nc(-c2ncnc3[nH]ccc23)cs1)C1CCN(C(=O)c2ccccc2)CC1 [Compound 173] | < 100 nM | < 100 nM
46 | CC(=O)NCCC(=O)Nc1nc(-c2ncnc3[nH]ccc23)cs1 [Compound 174] | 100 to 500 nM | < 100 nM
47 | COc1ccc(C(=O)Nc2nc(-c3ncnc4[nH]ccc34)cs2)cc1 [Compound 175] | 100 to 500 nM | < 100 nM
48 | O=C(Nc1nc(-c2ncnc3[nH]ccc23)cs1)C1CCCNC1 (centres unmarked) [Compound 176] | < 100 nM | < 100 nM
49 | CC(C)(C)OC(=O)N1CCCC(C(=O)Nc2nc(-c3ncnc4[nH]ccc34)cs2)C1 (centres unmarked) [Compound 177] | 100 to 500 nM | 100 to 500 nM
50 | CC(C)(C)OC(=O)N1CCC(C(=O)Nc2nc(-c3ncnc4[nH]ccc34)cs2)CC1 [Compound 178] | 100 to 500 nM | 100 to 500 nM
51 | CS(=O)(=O)N1CCC(C(=O)Nc2nc(-c3ncnc4[nH]ccc34)cs2)CC1 [Compound 179] | < 100 nM | < 100 nM
52 | O=C1[C@H]2CCCC[C@@H]2C(=O)N1c1nc(-c2ncnc3[nH]ccc23)cs1 [Compound 180] | 100 to 500 nM | 100 to 500 nM
